{
  "source": "patent US20250346588A1",
  "about": "“IMIDAZOPYRIDINE AND OXAZOLOPYRIDINE DERIVATIVES AND ANALOGS THEREOF, METHODS OF PREPARATION THEREOF, METHODS OF HIF-1/2A PATHWAY INHIBITION, AND INDUCTION OF FERROPTOSIS” (KUDA THERAPEUTICS, INC., priority 2022, published 2025)",
  "key": {"[1]": {"tested_on": "786-0 cells", "test": "Resazurin cell viability assay, with or without DFO and other inhibitors", "assay_type": "cell-based, human", "procedure": "(§1) Screens for inhibitory activity of compounds described herein were performed using 786-0 ccRCC cells that stably express HRE-Luc: 5 copies of the hypoxia-responsive element (HRE) fused to the pGL3 luciferase reporter (Promega Corp, Madison WI). 786-0 cells are pVHL deficient and thus constitutively express HIF-2α independently of cellular oxygen tension. Since 786-0 cells lack HIF-1α, HRE-driven luciferase activity is primarily HIF-2α driven, and has been previously validated. Cells were maintained at log phase growth in […] (DMEM) with 10% FBS in a humidified incubator at 37° C. with 5% CO2. For screening assays, cells were seeded at a density of 4,000 cells in 50 μl of complete media/well in quadruplicate wells/point in a 96-well plate. After 24 h, 50 μl of a 2× concentration of test compound was added to each well. Compounds were diluted from a 5-10 mM stock in DMSO and final concentrations of DMSO in each well in controls and treated wells were kept constant at ≤0.6% DMSO. After 24 h treatment, luciferase activity was measured using the Steady-Glo Luciferase assay system (Promega Corp) according to the manufacturer's protocol. Cell viability was measured in quadruplicate parallel wells using resazurin as recommended by the manufacturer (R&D systems, Minneapolis, MN). Data for luciferase and resazurin were normalized to DMSO treated controls (defining 100%) and wells containing assay reagent but no cells (defining 0%) and graphed using the log inhibitor versus normalized response option in Graphpad Prism 9.3.1 software. Representative data determined using Steady-Glo luciferase and resazurin are shown in FIGS. 1A and 1B respectively, with error bars showing SD. Filled diamonds, empty squares and empty triangles indicate treatment with 3, 8 and 22 respectively with results for HRE-Luc shown in FIG. 1A.\nIn view of the increased cellular iron concentrations induced by the compounds described herein, the involvement of iron in mediating cell death was determined. Cell viability assays were performed as described in Example 2 using resazurin as a cell viability readout and performed in the absence or presence of 100 μM of the iron chelator, DFO (D9533, MilliporeSigma, St Louis, MO). […] Viability IC50 values are shown in brackets."}, "[2]": {"test": "Bioavailability studies", "assay_type": "in vivo", "settings": "mouse, in vivo, Swiss albino mice"}, "[3]": {"tested_on": "HIF-1α and HIF-2α", "test": "Western blots for HIF-1α and HIF-2α in ccRCC cells", "assay_type": "cell-based, human", "settings": "786-0 or RCC10 ccRCC cells, 24h, relative to GAPDH", "procedure": "(§2) Western blots were performed to determine the effects of the compounds on levels of HIF-2α and other relevant proteins, whereas qPCR was performed to determine the effects of compounds on transcript levels of HIF target genes. 786-0 or RCC10 cells were plated at 1×10E5 cells/well in 2 ml DMEM with 10% FBS/well in 6-well tissue culture plates. Cells were allowed to adhere overnight in a humidified incubator at 37° C. with 5% CO2, after which the appropriate concentrations of compounds in DMSO were added. DMSO concentrations were kept constant in all wells. After 24 h exposure to the compounds, cells were lysed and subjected to western blotting according to standard protocols. Antibodies for HIF-1α and HIF-2α and GAPDH were purchased from Cell Signaling Technology (Danvers, MA), whereas antibodies to IRP2 and pVHL were from Santa Cruz Biotechnology (Dallas, TX), and GPX4 antibody was from R&D Systems, Inc (Minneapolis, MN). Representative data in FIG. 2 show a dose-dependent effect of compounds in decreasing HIF-1/2α. Compounds also impact cellular iron sensing given by increased IRP2, which taken together indicate that cells sense decreased amounts of available iron, which triggers the iron starvation response initiated by IRP2 stabilization. Representative data shown in FIG. 3D show a dose dependent effect of the compounds on GPX4, which may indicate decreased resistance to ferroptosis. […] The data also show increased expression of ISCA2 with pVHL re-expression."}, "[4]": {"tested_on": "IRP2 and GPX4", "test": "Western blots for cellular iron-sensing machinery (IRP2, GPX4)", "assay_type": "cell-based, human", "procedure": "as §2"}, "[5]": {"tested_on": "HIF-2α Iron-Responsive Element (IRE)", "test": "HIF-2α IRE-Luc reporter assay", "assay_type": "cell-based, human", "settings": "786-0 cells stably expressing HIF-2α IRE-Luc, 24h", "procedure": "as §1, with “Compounds were diluted from a 5-10 mM stock in DMSO and final concentrations of DMSO in each well in controls and treated wells were kept constant at ≤0.6% DMSO.” left out, “Data for luciferase and resazurin were normalized to DMSO treated controls (defining 100%) and wells containing assay reagent but no cells (defining 0%) and graphed using the log inhibitor versus normalized response option in Graphpad Prism 9.3.1 software.” left out, “Filled diamonds, empty squares and empty triangles indicate treatment with 3, 8 and 22 respectively with results for HRE-Luc shown in FIG. 1A.” left out"}, "[6]": {"tested_on": "786-0 cells", "test": "TBARS assay of lipid peroxidation (MDA)", "assay_type": "cell-based, human", "settings": "48h treatment", "procedure": "Malondialdehyde (MDA) is an end product of lipid peroxidation products and can be used to indicate lipid peroxidation, which is a hallmark of ferroptosis. MDA adducts were quantitated in cells and tumor tissue using the TBARS-TCA Method kit (Cat 700870, Cayman Chemicals, Ann Arbour Michigan) according to the manufacturer's protocol. Briefly, 786-0 cells were seeded at 1.75×10E6 cells in T75 cm^2 flasks, allowed to adhere overnight in a humidified incubator at 37° C. with 5% CO2, then treated with test compounds for 48 h, RSL3 (as positive control for 6h) or DMSO control (volume of DMSO kept constant for all flasks). Cells were detached by trypsinization, pelleted by centrifugation, washed in PBS twice, resuspended in 200 μL PBS, then sonicated for 3 minutes in a sonicating water bath. Representative data showing effects of 26HCL or 62TFA in comparison to RSL3, a classical ferroptosis inducer, is shown in FIG. 5. For MDA quantitation in tumor chunks, 20-50 mg of tumor tissue was homogenized in 200-500 μL of PBS, then sonicated for 5 minutes in a sonicating water bath. The cell or tumor lysates were subjected to the colorimetric detection methods described in manufacturer's protocol. MDA concentration of cells was determined in comparison to a standard curve of MDA stock solution provided by the manufacturer. Data was plotted using Prism GraphPad 9.3.1 Software. […]"}, "[7]": {"tested_on": "RCC10 or 786-0 cells with stable overexpression of empty vector or ISCA2", "test": "Cell viability with ISCA2 overexpression", "assay_type": "cell-based, human", "settings": "24h"}},
  "data": [
    {"smiles": "COc1ccc(-c2nnc(Nc3nc4c(OC)nccc4[nH]3)o2)cc1OC", "note": "[Compound 26HCL, N-(4-Methoxy-1H-imidazo[4,5-c]pyridin-2-yl)-5-(3,4-dimethoxyphenyl)-1,3,4-oxadiazol-2-amine]", "values": [
      {"measurement": "mechanism of cell death", "setting": "[1]; 24h, co-treatment with DFO, NAC, liproxstatin or ZVAD-FMK", "value": "iron-oxidant dependent and apoptosis/caspase-independent mechanism of cell death"},
      {"measurement": "effect of DFO co-treatment on compound-mediated loss of cell viability", "setting": "[1]; DFO 100 μM, FIG. 4B", "value": "protective effects of DFO"},
      {"measurement": "bioavailability", "setting": "[2]; oral, read-out: Bioavailability F", "value": 27.3, "unit": "%"},
      {"measurement": "half-life", "setting": "[2]; read-out: half-life (converted)", "value": 3.61, "unit": "h"},
      {"measurement": "effect on HIF-1α and HIF-2α protein (Western blot)", "setting": "[3]", "value": "decreases HIF-1α and HIF-2α"},
      {"measurement": "effect on IRP2 protein (Western blot)", "setting": "[4]; 786-0 or RCC10 ccRCC cells, 24h, relative to GAPDH", "value": "increases IRP2"},
      {"measurement": "effect on IRP2 and GPX4 protein (Western blot)", "setting": "[4]; higher concentrations of compound, FIG. 3D", "value": "decrease in IRP2 and GPX4"},
      {"measurement": "effect on IRE-luciferase reporter activity normalized to resazurin", "setting": "[5]", "value": "decrease IRE-mediated translation of HIF-2α"},
      {"measurement": "lipid peroxidation (MDA-TBA adducts)", "setting": "[6]", "value": "induce lipid peroxidation to an extent comparable to the ferroptosis inducer RSL3"},
      {"measurement": "effect of ISCA2 overexpression on cell viability response to compound", "setting": "[7]", "value": "ISCA2 overexpression promotes resistance"}
    ]}
  ]
}
